Source: patent US9156811B2 (priority 2008, dated 2015)
Where a name gives a salt, the structure may show the parent alone.

System: Trypanosome (T. brucei brucei)
Assay: In-vitro antitrypanosomal efficacy assay (cell growth, resazurin)
Type: cell-based
Conditions: not given

SMILES | ED50 (μM) T. brucei
Cc1nn(C)c(C)c1N(C(F)F)[S+](=O)([O-])c1c(Cl)cc(CCCC2CCNCC2)cc1Cl [DDD100096, 2,6-Dichloro-N-(difluoromethyl)-4-(3-(piperidin-4-yl)propyl)-N-(1,3,5-trimethyl-4H-pyrazol-4-yl)benzenesulfonamide hydrochloride salt] | 0.003 µM

Same assay, conditions: T. brucei brucei, blood stream form, variant 221

SMILES | ED50 (μM) T. brucei
Cc1ccc(-c2ccc([S+](=O)([O-])Nc3c(CC(C)C)nn(C)c3C)cc2)cc1CN(C)C [DDD99824] | 0.014 µM
Cc1nn(C)c(C)c1N(C)[S+](=O)([O-])c1ccc(CCCCCCCN(C)C)cc1 [DDD99825] | 0.054 µM
Cc1c(N[S+](=O)([O-])c2ccc(-c3cc(CN(C)C)ccc3Cl)cc2)c(CC(C)C)nn1C [DDD99826] | 0.104 µM
Cc1nn(C)c(C)c1N[S+](=O)([O-])c1ccc(CCCCC2CCN(C)CC2)cc1 [DDD99830] | 0.020 µM
Cc1c(N[S+](=O)([O-])c2ccc(-c3ccc(F)c(CN(C)C)c3)cc2)c(CC(C)C)nn1C [DDD99832] | 0.010 µM
Cc1nn(C)c(C)c1N(C)[S+](=O)([O-])c1c(Cl)cc(CCCCCCn2ccnc2)cc1Cl [DDD99833] | 0.018 µM
Cc1nn(C)c(C)c1N(C)[S+](=O)([O-])c1c(Cl)cc(CCCCCn2ccnc2)cc1Cl [DDD99834] | 0.225 µM
CCc1nn(C)c(CC)c1N(C)[S+](=O)([O-])c1c(Cl)cc(CCCN2CCN(C)CC2)cc1Cl [DDD99836] | 0.013 µM
Cc1nn(C)c(C)c1N(C)[S+](=O)([O-])c1ccc(CCCCCCCn2ccnc2)cc1 [DDD99838] | >1 µM
Cc1nn(C)c(C)c1N(C(F)F)[S+](=O)([O-])c1c(Cl)cc(CCCN2CCN(C)CC2)cc1Cl [DDD100086] | 0.012 µM
CCN(c1c(C)nn(C)c1C)[S+](=O)([O-])c1c(Cl)cc(CCCC2CCN(C)CC2)cc1Cl [DDD100088] | 0.003 µM
CCN(c1c(C)nn(C)c1C)[S+](=O)([O-])c1c(Cl)cc(CCCC2CCNCC2)cc1Cl [DDD100091] | 0.004 µM
Cc1nn(C)c(C)c1N(C)[S+](=O)([O-])c1ccc(CCCCCCCCN(C)C)cc1 [DDD100093] | 0.106 µM
Cc1c(N[S+](=O)([O-])c2ccc(-c3ccc(OC(F)(F)F)c(CN(C)C)c3)cc2)c(CC(C)C)nn1C [DDD100140] | >1 µM
Cc1nn(C)c(C)c1N(CC(F)F)[S+](=O)([O-])c1c(Cl)cc(CCCN2CCCNCC2)cc1Cl [DDD100142] | 0.014 µM
Cc1c(N[S+](=O)([O-])c2ccc(-c3ccc(Cl)c(CN(C)C)c3)cc2)c(CC(C)C)nn1C [DDD100143] | 0.017 µM
Cc1nn(C)c(C)c1N(CC(F)F)[S+](=O)([O-])c1c(Cl)cc(CCCC2CCNCC2)cc1Cl [DDD100145] | 0.02 µM
Cc1nn(C)c(C)c1N(CC(F)(F)F)[S+](=O)([O-])c1c(Cl)cc(CCCC2CCNCC2)cc1Cl [DDD100151] | 0.034 µM
Cc1nn(C)c(C)c1N(CC(F)(F)F)[S+](=O)([O-])c1c(Cl)cc(CCCN2CCCN(C)CC2)cc1Cl [DDD100157] | 0.014 µM
Cc1nn(C)c(C)c1N(CC(F)F)[S+](=O)([O-])c1c(Cl)cc(CCCCC2CCN(C)CC2)cc1Cl [DDD100159] | 0.009 µM
Cc1nn(C)c(C)c1N(CC(F)F)[S+](=O)([O-])c1c(Cl)cc(CCCC2CCN(C)CC2)cc1Cl [DDD100160] | 0.013 µM
Cc1nn(C)c(C)c1N(CC(F)F)[S+](=O)([O-])c1c(Cl)cc(CCCOC2CCN(C)CC2)cc1Cl [DDD100161] | 0.006 µM
Cc1nn(C)c(C)c1N(C(F)F)[S+](=O)([O-])c1c(Cl)cc(CCCN2CCCN(C)CC2)cc1Cl [DDD100164] | 0.001 µM
Cc1nn(C)c(C)c1N(CC(F)(F)F)[S+](=O)([O-])c1c(Cl)cc(CCCCC2CCN(C)CC2)cc1Cl [DDD100165] | 0.020 µM

Same assay, conditions: T. brucei cell growth

SMILES | ED50 (μM) T. brucei
Cc1nn(C)c(C)c1N(C)[S+](=O)([O-])c1ccc(-c2cccc(CN3CCN(C)CC3)c2)cc1 [DDD88196, 3′-(4-Methyl-piperazin-1-ylmethyl)-biphenyl-4-sulfonic acid methyl-(1,3,5-trimethyl-1H-pyrazol-4-yl)-amide] | 0.05 µM
Cc1nn(C)c(CC(C)C)c1N[S+](=O)([O-])c1c(Cl)cc(Br)cc1Cl [DDD88197, 4-Bromo-2,6-dichloro-N-(5-isobutyl-1,3-dimethyl-1H-pyrazol-4-yl)-benzenesulfonamide] | 45.9 µM
Cc1c(N[S+](=O)([O-])c2c(Cl)cc(Br)cc2Cl)c(CC(C)C)nn1C [DDD88198, 4-Bromo-2,6-dichloro-N-(3-isobutyl-1,5-dimethyl-1H-pyrazol-4-yl)-benzenesulfonamide] | 2.3 µM
Cc1nn(C)c(C)c1N[S+](=O)([O-])c1c(F)cc(Br)cc1F [DDD88317] | >10 µM
Cc1nn(C)c(C)c1N[S+](=O)([O-])c1ccc2nc(Cl)ccc2c1 [DDD88533] | >10 µM
Cc1nn(C)c(C)c1N[S+](=O)([O-])c1ccc(-c2ccnc(N3CCNC(C(C)C)C3)c2)cc1 (stereo not drawn) [DDD88549] | 0.11 µM
Cc1nn(C)c(C)c1N[S+](=O)([O-])c1c(Cl)cc(CCCC2CCN(C)CC2)cc1Cl [DDD88557] | 0.002 µM
Cc1nn(C)c(C)c1N[S+](=O)([O-])c1ccc(CCCC2CCN(C)CC2)cc1 [DDD88559] | 0.038 µM
Cc1nn(C)c(C)c1N[S+](=O)([O-])c1ccc(CCCN2CCNCC2)cc1 [DDD88580] | 1.13 µM
CCN(CC)Cc1cccc(-c2cc(Cl)c([S+](=O)([O-])N(C)c3c(C)nn(C)c3C)c(Cl)c2)c1 [DDD88641] | 0.31 µM
CCN(CC)Cc1cccc(-c2ccc([S+](=O)([O-])N(C)c3c(CC(C)C)nn(C)c3C)cc2)c1 [DDD88643] | 0.49 µM
Cc1nn(C)c(C)c1N(C)[S+](=O)([O-])c1c(Cl)cc(CCCN2CCN(C)CC2)cc1Cl [DDD88644] | 0.012 µM
Cc1nn(C)c(C)c1N(CC(F)(F)F)[S+](=O)([O-])c1ccc(-c2ccnc(N3CCNCC3)c2)cc1 [DDD88645] | 0.021 µM
CCN(c1c(C)nn(C)c1C)[S+](=O)([O-])c1c(Cl)cc(-c2ccnc(N3CCNCC3)c2)cc1Cl [DDD88646] | 0.002 µM
Cc1nn(C)c(C)c1N(C)[S+](=O)([O-])c1c(Cl)cc(CCCC2CCNCC2)cc1Cl [DDD90022] | 0.002 µM
Cc1nn(C)c(C)c1N(C)[S+](=O)([O-])c1ccc(CCCC2CCN(C)CC2)cc1 [DDD90023] | 0.20 µM
Cc1nn(C)c(C)c1N(CC(F)(F)F)[S+](=O)([O-])c1ccc(-c2cccc(CN3CCN(C)CC3)c2)cc1 [DDD90057] | 0.73 µM
Cc1nn(C)c(C)c1N(C)[S+](=O)([O-])c1ccc(-c2cccc(CC3CCN(C)CC3)c2)cc1 [DDD90091] | 0.063 µM
Cc1nn(C)c(C)c1N(C)[S+](=O)([O-])c1ccc(-c2cccc(CC3CCNCC3)c2)cc1 [DDD90098] | 0.060 µM
Cc1nn(C)c(C)c1N(CC(F)F)[S+](=O)([O-])c1ccc(-c2ccnc(N3CCNCC3)c2)cc1 [DDD90111] | 0.005 µM
Cc1nn(C)c(C)c1N(C)[S+](=O)([O-])c1ccc(CCCC2CCNCC2)cc1 [DDD90112] | 0.270 µM

SMILES | ED50 (μM) T. brucei
Cc1nn(C)c(C)c1N(C)[S+](=O)([O-])c1c(Cl)cc(-c2cccc(CN3CCN(C)CC3)c2)cc1Cl [DDD90118] | 0.015 µM
Cc1c(N(C)[S+](=O)([O-])c2ccc(CCCC3CCN(C)CC3)cc2)c(CC(C)C)nn1C [DDD90142] | 0.168 µM
Cc1c(N[S+](=O)([O-])c2ccc(CCCC3CCNCC3)cc2)c(CC(C)C)nn1C [DDD90144] | 0.034 µM
Cc1nn(C)c(C)c1N(C)[S+](=O)([O-])c1ccc(CCCCCN(C)C)cc1 [DDD90145] | 1.00 µM
Cc1nn(C)c(C)c1N(C)[S+](=O)([O-])c1c(Cl)cc(CCCC2CCN(C)CC2)cc1Cl [DDD90146] | 0.002 µM
CCN(c1c(C)nn(C)c1C)[S+](=O)([O-])c1c(Cl)cc(CCCN2CCN(C)CC2)cc1Cl [DDD90154] | 0.023 µM
Cc1c(N[S+](=O)([O-])c2ccc(-c3cccc(CN4CCCC4)c3)cc2)c(CC(C)C)nn1C [DDD99739] | 0.058 µM
CNCc1cccc(-c2ccc([S+](=O)([O-])Nc3c(CC(C)C)nn(C)c3C)cc2)c1 [DDD99748] | 0.036 µM
Cc1nn(C)c(C)c1N(C)[S+](=O)([O-])c1c(Cl)cc(CCCN2CC(C)NC(C)C2)cc1Cl (stereo not drawn) [DDD99751] | 0.021 µM
Cc1nn(C)c(C)c1N(C)[S+](=O)([O-])c1ccc(CCCCCCN(C)C)cc1 [DDD99753] | 0.406 µM
Cc1nn(C)c(C)c1N(C)[S+](=O)([O-])c1c(Cl)cc(CCCN2CCCNCC2)cc1Cl [DDD99755] | 0.002 µM
Cc1c(N[S+](=O)([O-])c2ccc(-c3cccc(C4CCNCC4)c3)cc2)c(CC(C)C)nn1C [DDD099757] | 0.061 µM
Cc1nn(C)c(C)c1N[S+](=O)([O-])c1ccc(CCCC2CCNCC2)cc1 [DDD99758] | 0.110 µM
Cc1nn(C)c(C)c1N[S+](=O)([O-])c1c(Cl)cc(CCCC2CCNCC2)cc1Cl [DDD99759] | 0.003 µM
Cc1nn(C)c(C)c1N[S+](=O)([O-])c1ccc(CCCCC2CCNCC2)cc1 [DDD99760] | 0.010 µM
Cc1nn(C)c(C)c1NS(=O)(=O)c1ccc(C#CCCC2CCN(C)CC2)cc1 [DDD99761] | 0.240 µM
Cc1c(N(C)[S+](=O)([O-])c2ccc(-c3cccc(C4CCNCC4)c3)cc2)c(CC(C)C)nn1C [DDD99815] | 0.123 µM
Cc1c(N[S+](=O)([O-])c2ccc(-c3cccc(CN(C)C)c3F)cc2)c(CC(C)C)nn1C [DDD99816] | 0.031 µM
Cc1cc(CCCN2CCN(C)CC2)cc(C)c1[S+](=O)([O-])N(C)c1c(C)nn(C)c1C [DDD99818] | 0.047 µM
Cc1nn(C)c(C)c1N[S+](=O)([O-])c1ccc(CCCOC2CCN(C)CC2)cc1 [DDD99820] | 0.020 µM
